Assay results as given in patent US20180303812A1, “PHARMACEUTICAL COMPOSITION FOR USE IN TREATING AML AND METHOD OF TREATING AML IN A SUBJECT IN NEED THEREOF” (DAIICHI SANKYO COMPANY, LIMITED, priority 2015, published 2018).

How the values were obtained:
[1] = system: AML samples (mononuclear cells from peripheral blood or bone marrow of AML patients); assay: Ex vivo treatment of primary AML patient samples; live cells by annexin V / propidium iodide binding assays; type: cell-based, human
Protocol: Leukemia samples isolated from peripheral blood or bone marrow of patients with newly diagnosed or relapsed/refractory AML were treated using the test compound as described below.
Heparinized peripheral blood and bone marrow samples containing more than 1.6×10^7 mononuclear cells were obtained from AML patients with newly diagnosed or relapsed/refractory AML, after informed consent according to the University of Texas MD Anderson Cancer Center (MDA, Houston, Tex., USA) guidelines in accordance with the Declaration of Helsinki. In each sample, the blast counts (blast %) was determined from routine morphological differential counts by clinical laboratory technicians, confirmed by hematopathologists at MDA (usually 500 cells were counted). […]
Mononuclear cells were purified by density-gradient centrifugation. The cells were cultured in RPMI 1640 medium containing 10% fetal bovine serum and were treated ex vivo for 48 hours with the test compound (0, 25, 50, 100, 250, 500, or 1000 nM), and live cell numbers were determined by apoptosis analysis using annexin V and propidium iodide (PI, purchased from Sigma-Aldrich) binding assays. Annexin V- and PI-negative cells were counted as live cells. Apoptosis was quantified as the proportion of annexin V-positive cells, and specific apoptosis was calculated by the following formula: % specific apoptosis=(test−control)×100/(100−control). […]

[2] = system: AML; conditions: AML patients; cited from earlier work

CC1(C)CCC2(CC1)N[C@@H](C(=O)N[C@@H]1CC[C@@H](C(N)=O)OC1)[C@H](c1ccnc(Cl)c1F)[C@]21C(=O)Nc2cc(Cl)ccc21.Cc1ccc(S(=O)(=O)O)cc1 [Compound 2, (3′R,4′S,5′R)—N-[(3R,6S)-6-carbamoyltetrahydro-2H-pyran-3-yl]-6″-chloro-4′-(2-chloro-3-fluoropyridin-4-yl)-4,4-dimethyl-2″-oxo-1″,2″-dihydrodispiro[cyclohexane-1,2′-pyrrolidine-3′,3″-indole]-5′-carboxamide mono(4-methylbenzenesulfonate) monohydrate]
leukemia cells induce apoptosis ([1]; in other samples): less than 20% | leukemia cells induced apoptosis ([1]; in some of the samples, at a higher concentration): more than 80%

CCOc1cc(C(C)(C)C)ccc1C1=N[C@@](C)(c2ccc(Cl)cc2)[C@@](C)(c2ccc(Cl)cc2)N1C(=O)N1CCN(CCCS(C)(=O)=O)CC1 [RG7112]
clinical response [2]: clinical responses including complete remissions
